ChEMBL document CHEMBL1201862, “PubChem BioAssay data set” (2004)
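Exposure lasted 48 hours, with cells grown in 96-well plates and compounds tested at five concentrations. GI50 = concentration required for 50% inhibition of growth.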 Calls of active or inactive are those of the source. Rule as the data show it: active = GI50 up to about 1.1 µM and inactive = higher. Square brackets hold non-standard residues; d marks the D form. Peptide text beside a SMILES is read from it. Ac5c = NC1(C(=O)O)CCCC1

Key:
Assay in all cases: DTP human tumour cell line panel, 48 h
ACHN = system: ACHN
CAKI-1 = system: CAKI-1
COLO 205 = system: COLO 205
DU-145 = system: DU-145
HOP-92 = system: HOP-92
IGROV-1 = system: IGROV-1
MDA-MB-231 = system: MDA-MB-231
MDA-MB-435 = system: MDA-MB-435
NCI-H23 = system: NCI-H23
PC-3 = system: PC-3
RPMI-8226 = system: RPMI-8226
RXF 393 = system: RXF 393
SF-295 = system: SF-295
SK-MEL-5 = system: SK-MEL-5
T47D = system: T47D
NCI-H522 = system: NCI-H522
SN12C = system: SN12C

| SMILES | GI50 (ACHN) | GI50 (CAKI-1) | GI50 (COLO 205) | GI50 (DU-145) | GI50 (HOP-92) | GI50 (IGROV-1) | GI50 (MDA-MB-231) | GI50 (MDA-MB-435) | GI50 (NCI-H23) | GI50 (PC-3) | GI50 (RPMI-8226) | GI50 (RXF 393) | GI50 (SF-295) | GI50 (SK-MEL-5) | GI50 (T47D) | GI50 (NCI-H522) | GI50 (SN12C) |
| --- | --- | --- | --- | --- | --- | --- | --- | --- | --- | --- | --- | --- | --- | --- | --- | --- | --- |
| CC(C)(C)COC1C2(OCCO2)C2CCC1(C)C2(C)C (stereo unspecified) | 20.4 µM (inactive) | 40.1 µM (inactive) | 28.6 µM (inactive) | 35.7 µM (inactive) | 28.1 µM (inactive) | 82.8 µM (inactive) | 31.8 µM (inactive) | 36 µM (inactive) | 52.5 µM (inactive) | 23.1 µM (inactive) | 19.9 µM (inactive) | 19.6 µM (inactive) | 18.7 µM (inactive) | 30.3 µM (inactive) | 23.8 µM (inactive) |  |  |
| CCOP(=O)(OCC)C(C)(CC)N/C(=N\C1=NC(C(F)(F)F)(C(F)(F)F)N=C(C(F)(F)F)O1)NC(NC(C)=O)(C(F)(F)F)C(F)(F)F (stereo unspecified) | 28.8 µM (inactive) | 42 µM (inactive) | 16.1 µM (inactive) | 81.5 µM (inactive) | 9.95 µM (inactive) | 51.2 µM (inactive) | 22.9 µM (inactive) | 32.7 µM (inactive) | 18.2 µM (inactive) | 21.2 µM (inactive) | 24.2 µM (inactive) | 32.6 µM (inactive) | 18 µM (inactive) | 14.1 µM (inactive) | 22.7 µM (inactive) | 27 µM (inactive) | 34.1 µM (inactive) |
| C=CCSc1nc2ccccc2c(=O)n1Cc1ccco1 | > 100 µM (inactive) | > 100 µM (inactive) | > 100 µM (inactive) | > 100 µM (inactive) | 86.3 µM (inactive) | > 100 µM (inactive) | > 100 µM (inactive) | > 100 µM (inactive) | 94.8 µM (inactive) | > 100 µM (inactive) | 37.4 µM (inactive) | 35.6 µM (inactive) | > 100 µM (inactive) | 45 µM (inactive) | 29.1 µM (inactive) | 61.8 µM (inactive) | > 100 µM (inactive) |
| O=C1C(c2ccccc2)=C(c2ccccc2)C1(Cl)Cl | 2.64 µM (inactive) | 2.62 µM (inactive) | 2.59 µM (inactive) | 11.7 µM (inactive) | 2.37 µM (inactive) | 3.95 µM (inactive) | 3.28 µM (inactive) | 2.43 µM (inactive) | 2.75 µM (inactive) | 4.37 µM (inactive) | 2.11 µM (inactive) | 1.88 µM (inactive) | 9.89 µM (inactive) | 2.82 µM (inactive) | 3.18 µM (inactive) | 2.12 µM (inactive) | 2.87 µM (inactive) |
| O=C(NCCN(CCNC(=O)c1cccc(O)c1O)CCNC(=O)c1cccc(O)c1O)c1cccc(O)c1O [TRENCAM] | 4.2 µM (inactive) | 21.9 µM (inactive) | 5.15 µM (inactive) | 6.98 µM (inactive) | 7.53 µM (inactive) | 4.73 µM (inactive) | 6.07 µM (inactive) | 21.7 µM (inactive) | 11.5 µM (inactive) | 11.4 µM (inactive) |  | 7.87 µM (inactive) | 25.4 µM (inactive) | 2.75 µM (inactive) | 9.73 µM (inactive) | 0.826 µM (active) | 8.55 µM (inactive) |
| COc1ccc2ccccc2c1C1NC(=O)c2ccccc2N1 (stereo unspecified) | 1.26 µM (inactive) | 2.62 µM (inactive) | 1.87 µM (inactive) | 1.53 µM (inactive) | 14.8 µM (inactive) | 1.72 µM (inactive) | 3.63 µM (inactive) | 0.234 µM (active) | 4.67 µM (inactive) | 0.519 µM (active) | 0.659 µM (active) | 1.37 µM (inactive) | 0.578 µM (active) | 0.384 µM (active) | 12.1 µM (inactive) | 1.54 µM (inactive) | 2.67 µM (inactive) |
| Cc1cc(C)c2c(=O)n(CN3CC4Nc5ccccc5C4C3)sc2n1 (stereo unspecified) | 17.9 µM (inactive) | 21 µM (inactive) | 26.1 µM (inactive) | 21.1 µM (inactive) | 38.5 µM (inactive) | > 100 µM (inactive) | 18.7 µM (inactive) | 19.5 µM (inactive) | 22 µM (inactive) | 21.3 µM (inactive) | 11.3 µM (inactive) | 22.8 µM (inactive) | > 100 µM (inactive) | 30.2 µM (inactive) | 81.8 µM (inactive) | 4.19 µM (inactive) | 30.7 µM (inactive) |
| NCC(=O)NC1(C(=O)O)CCCC1 (H-Gly-[Ac5c]-OH) | > 100 µM (inactive) | > 100 µM (inactive) | > 100 µM (inactive) | > 100 µM (inactive) | > 100 µM (inactive) | > 100 µM (inactive) | > 100 µM (inactive) | > 100 µM (inactive) | > 100 µM (inactive) | > 100 µM (inactive) | > 100 µM (inactive) | > 100 µM (inactive) | > 100 µM (inactive) | > 100 µM (inactive) | > 100 µM (inactive) | > 100 µM (inactive) | > 100 µM (inactive) |
| O=C(Cn1c(=O)oc2ccc(C(=O)c3ccc(F)cc3)cc21)c1ccc([N+](=O)[O-])cc1 | 35 µM (inactive) | 47.6 µM (inactive) | 26.9 µM (inactive) | 46.7 µM (inactive) | 49.3 µM (inactive) | 24.3 µM (inactive) | 28.9 µM (inactive) | 19.3 µM (inactive) | 45.6 µM (inactive) | 22.5 µM (inactive) | 22.2 µM (inactive) | 27.3 µM (inactive) |  | 15.7 µM (inactive) | 24.7 µM (inactive) | 18.8 µM (inactive) | 60.3 µM (inactive) |
| NC(=O)C(c1ccccc1)N1OC2C(=O)N(c3cccc4ccccc34)C(=O)C2C1c1c2ccccc2c(Cl)c2ccccc12 (stereo unspecified) | 8.91 µM (inactive) | 5.28 µM (inactive) | 7.85 µM (inactive) | 14.5 µM (inactive) | 9.27 µM (inactive) | 11.7 µM (inactive) | 9.25 µM (inactive) | 6.92 µM (inactive) | 9.2 µM (inactive) | 6.98 µM (inactive) |  | 6.81 µM (inactive) | 9.75 µM (inactive) | 5.06 µM (inactive) | 8.93 µM (inactive) | 10.1 µM (inactive) | 8.47 µM (inactive) |
| O=C1Oc2cc(O)cc(/C=C/c3ccc(O)cc3)c2[C@@]12c1c(O)cc(O)cc1OC2c1cccc(O)c1 (stereo partly specified) | 52.5 µM (inactive) | 83.8 µM (inactive) | 26 µM (inactive) | 39 µM (inactive) | 31.2 µM (inactive) | 0.61 µM (active) | 26.4 µM (inactive) | 21.4 µM (inactive) | 24.7 µM (inactive) | 30.9 µM (inactive) | 13.4 µM (inactive) | 34.6 µM (inactive) | 32.2 µM (inactive) | 12.5 µM (inactive) | 44.8 µM (inactive) |  | 25.9 µM (inactive) |
| C(=N\c1ccc(-c2nc3ccccc3[nH]2)cc1)/c1cccs1 | > 100 µM (inactive) | > 100 µM (inactive) | 97.5 µM (inactive) | > 100 µM (inactive) | 17.7 µM (inactive) | 19.8 µM (inactive) | 51.4 µM (inactive) | > 100 µM (inactive) | > 100 µM (inactive) | 73.1 µM (inactive) | 52 µM (inactive) | 56.6 µM (inactive) | 75.7 µM (inactive) | 54 µM (inactive) | 31.9 µM (inactive) | 62.8 µM (inactive) | > 100 µM (inactive) |
| CC(C)=CCc1cc2c(cc1O)OC[C@H]1c3cc4c(cc3O[C@@H]21)OCO4 | 42.4 µM (inactive) | 25.1 µM (inactive) | > 100 µM (inactive) | 38.8 µM (inactive) | 23 µM (inactive) | > 100 µM (inactive) | 40.3 µM (inactive) | 32.6 µM (inactive) | 33.2 µM (inactive) | 23.3 µM (inactive) |  | 21.4 µM (inactive) | > 100 µM (inactive) | 20.3 µM (inactive) | 34.4 µM (inactive) | 32.6 µM (inactive) | > 10 µM (inactive) |
| COC(=O)c1ccccc1CC1Cc2cccc(C)c2C1=O (stereo unspecified) | 34.8 µM (inactive) | 80.2 µM (inactive) | 20.3 µM (inactive) | 96.4 µM (inactive) | 23.8 µM (inactive) | 46.5 µM (inactive) | 51.5 µM (inactive) | 23.3 µM (inactive) | 57.5 µM (inactive) | 24 µM (inactive) |  | 24.7 µM (inactive) | 38.9 µM (inactive) | 21.4 µM (inactive) | 25.8 µM (inactive) | 24.8 µM (inactive) | 50.5 µM (inactive) |
| CSC(=N/C=C/c1ccccc1)SC | > 100 µM (inactive) | > 100 µM (inactive) | > 100 µM (inactive) | > 100 µM (inactive) | > 100 µM (inactive) | 73.6 µM (inactive) | > 100 µM (inactive) | 76.7 µM (inactive) | > 100 µM (inactive) | 64.3 µM (inactive) | > 100 µM (inactive) | 25.2 µM (inactive) | > 100 µM (inactive) |  | > 100 µM (inactive) | 64 µM (inactive) | > 100 µM (inactive) |
| CN(C)C(=O)OC(Cn1cncn1)(Cn1cncn1)c1ccc(Cl)cc1Cl |  | > 100 µM (inactive) | > 100 µM (inactive) | > 100 µM (inactive) | > 100 µM (inactive) | > 100 µM (inactive) | > 100 µM (inactive) | > 100 µM (inactive) |  | > 100 µM (inactive) | > 100 µM (inactive) | > 100 µM (inactive) | > 100 µM (inactive) | > 100 µM (inactive) | > 100 µM (inactive) | > 100 µM (inactive) |  |
| N/C(=N/O)c1cn(C2OC(CO)C(O)C2O)c2ncnc(NO)c12 (stereo unspecified) | 0.0189 µM (active) |  | 0.0771 µM (active) | 0.112 µM (active) | 1.03 µM (active) | 0.451 µM (active) | 0.0344 µM (active) | 0.0962 µM (active) | 0.216 µM (active) | 0.0621 µM (active) | 0.146 µM (active) | 0.356 µM (active) | 0.773 µM (active) | 0.151 µM (active) | 0.037 µM (active) | 0.0226 µM (active) | 0.0593 µM (active) |
